Measured values from US20250177479A1, “DEPSIPEPTIDE-BASED AMPHIPHILIC BULIDING BLOCK TO INHIBIT PROTEIN-PROTEIN INTERACTIONS, NANOSTRUCTURE COMPRISED THEREOF AND USES THEREOF” (INDUSTRY-ACADEMIC COOPERATION FOUNDATION, YONSEI UNIVERSITY, priority 2023, published 2025).

How the values were obtained:
[1] = tested on: HCT116 p53+/+ cells; assay: WST-8 cell viability assay in HCT116 p53+/+ cells; format: cell-based, human; conditions: 0, 5, 10, 15, 20 μM, 12 to 24 hours
Method: First, HCT116 p53^+/+ cells were cultured in a thermos-hygrostat incubator at 37° C., 5% CO2 in DMEM containing 10% FBS and 1% Pen-Step.
For a WST-8 cell viability assay, the HCT116 p53+/+ cells were seeded at a density of 2×10^4 cells/well in […] culture medium in a 96-well plate and cultured for 24 hours. […] After culturing at 37° C. for 12 to 24 hours, WST-8 reagent (Abcam Inc., UK) was added to each well, and culture was performed for 30 minutes. The absorbance at […] was measured using a microplate reader (PerkinElmer Inc., USA).

[2] = tested on: p53; assay: Immunoblotting kinetic analysis of MDM2 and p53; format: cell-based, human; conditions: 10 μM; HCT116 p53+/+ cells
Method: The cells were harvested, washed with cold PBS, and lysed with a radio-immunoprecipitation assay (RIPA) buffer. The cell lysate was centrifuged at 4° C. and 13,000 rpm for 20 minutes, and the supernatant was collected. The protein amount of the lysate was quantified using a bicinchoninic acid (BCA) protein assay kit (Pierce Inc., USA). The supernatant of the cell lysate was loaded on 10% sodium dodecyl sulfate-polyacrylamide gel electrophoresis (SDS-PAGE) to separate proteins, which were transferred to a polyvinylidene fluoride (PVDF) membrane, and the membrane was treated with 5% skim milk in tris-buffered saline with Tween® 20 (TBS-T) buffer (room temperature), and after one hour, washed with TBS-T buffer (2×) for one minute. After treatment with primary antibodies (specific primary antibodies) (p53, MDM2, or vinculin), the membrane was incubated overnight at 4° C. The membrane was washed with TBS-T for 10 minutes (5×), treated with horseradish peroxidase (HRP)-conjugated secondary antibodies (room temperature, 1 h), and then washed with TBS-T for 10 minutes (5×) and analyzed using a LAS 3000 luminescent image analyzer (Fujifilm Co., LTD., Japan).

[3] = tested on: HCT116 cells; assay: In vivo anticancer effect in HCT116 xenografted mice; conditions: 76.9 nmol/100 μl saline i.v., once every two days, five times; 14 days
Method: Body weight and tumor volume of each group were measured every 0, 2, 4, 6, 8, 10, 12, and 14 days.

[4] = Biodistribution of Cy5.5-labeled SdPN in xenografted mice (fluorescence, IVIS)
Method: In order to verify the tumor specificity of the SdPN according to the present invention, an analysis was performed using a cancer animal model (xenograft) in which human cancer cells were cultured in immunodeficient mice. Specifically, a mixture of 50 mL of Matrigel (Corning, NY, USA) and HCT116 cells (5× 10^6 cells in 50 mL of saline) was subcutaneously injected into the hind legs of 5-week-old nu/nu male nude mice (nu/nu athymic). The tumor volume was analyzed using a caliper [tumor volume=(major axis)×(minor axis)^2/2]. […] At this time, the dose was 100 μl of saline injected at a concentration of 400 μM based on Cy5.5 (40 nmol/100 μl saline).
Fluorescence images were obtained at various times after the intravenous injection.
The isolated cancer tissues were treated with 4% paraformaldehyde, and their moisture content was assessed with sucrose.

[5] = 24 hours after i.v. administration, Cy5.5-labeled

Row | Compound | viability of HCT116 p53+/+ cells (cancer cell apoptotic effect) [1] | PPI inhibition action speed [2] | cancer growth [3] | localization to the cancer area (IVIS) ([4]; 40 nmol/100 μl saline i.v.) | removal over time (IVIS) ([4]; 40 nmol/100 μl saline i.v.) | accumulation in cancer tissues (frozen sections) [4, 5] | accumulation in major organs and cancer tissues (ex vivo fluorescence) [4, 5] | fluorescence of tail vein blood over time (in vivo retention) ([4]; after i.v. administration, Cy5.5-labeled)
1 | COc1cc(C(=O)O)ccc1NC(=O)[C@@H]1N[C@@H](CC(C)(C)C)[C@](C#N)(c2ccc(Cl)cc2F)[C@H]1c1cccc(Cl)c1F [idasanutlin] | higher anticancer effect than that of the SdPN (6:4) of Example 8 | three | significantly inhibited |  |  |  |  | 
2 | sulfo-cyanine 5.5 [Cy5.5] |  |  |  | failed to be specifically localized to the cancer area | rapidly removed over time | no significant accumulation | significant accumulation neither in major organ tissues nor cancer tissues | completely eliminated within a short time
